Test results as given in patent US20090234019A1, “T Type Calcium Channel Inhibitors” (priority 2004, published 2009).
Read-outs that look alike come from different tables or passages of the source.

Key:
Jurkat cells [1] = assay: Inhibition of proliferation of Jurkat cells; type: cell-based, human; conditions: Homo sapiens
Experimental: (§1) Cancer cell lines were obtained from the American Type Culture Collection (Manassas, Va.). Cell lines were maintained in RPMI1640 supplemented with glutamine and 5% fetal bovine serum containing SerXtend (Irvine Scientific) when appropriate insulin, as directed by the ATCC. The fetal bovine serum used for culture was heat-inactivated by maintaining the serum at 56° C. for 1 h. Cell lines used were a T celleukemia (Jurkat), prostate cancer (PC3, DU145, LNCAP), breast cancer (MDA468, MDA361, MCF7), pancreatic cancer (MIA PaCa2), liver cancer (Hep G2), lung cancer (A549, NCl H460), colon cancer (HT29, HCT 116), and ovarian cancer (SK-OV-3).
(§2) LNCaP cells at 2.5×10^4 cells/well or PC-3 cells at 5×10^4 cells/well, both in a final volume of […], were plated in triplicate in standard flat-bottomed 96-well tissue culture plates in the presence of drug or vehicle (DMSO). Unless otherwise indicated, cells were grown for 48 h at 37° C. in a CO2 incubator. Relative cell growth was determined with the CellTiter 96 aqueous cell proliferation assay (Promega, Madison, Wis.) as described by the manufacturer using an automated plate reader. Results were calculated in a blinded fashion and are the means of triplicate determinations.

Jurkat cells [2] = assay: Inhibition of calcium entry into Jurkat cells (indo-1 fluorescence); type: cell-based, human; conditions: Homo sapiens
Experimental: Cells were incubated in growth media containing 1 uM of the acetoxy-methyl ester of the Ca2+-sensitive fluorescent dye indo-1 (indo-1/AM; Molecular Probes, Eugene, Oreg.) for 1 h at 37° C. Cells were washed three times in buffer A [10 mM HEPES (pH 7.4), 1 mM MgCl2, 3 mM KCl, 1 mM CaCl2, 140 mM NaCl, 0.1% glucose, and 1% fetal bovine serum] and suspended to a final concentration of 10^6 cells/ml. Before stimulation, cells were warmed to 37° C. Changes in [Ca2+]i were monitored in an SLM […] spectrofluorimeter (SLM/Aminco; Urbana, Ill.) using previously published methods ([…]., Szabo, G., and Gray, L. S. 1996. A voltage operable current is involved in activation-induced Ca^2+ entry in human lymphocytes whereas ICRAC has no apparent role. Am. J. Physiol. 271:[…]., and Gray, L. S. 1998. Calmodulin regulation of Ca^2+ entry in Jurkat T cells. Cell Calcium 23:361-368).

MDA-435 cells [3] = assay: Inhibition of proliferation of MDA-435 cells; type: cell-based; conditions: read-out: prolif: IC50 for inhibition of proliferation, MDA-435
LNCaP cells [4] = assay: Inhibition of calcium entry into LNCaP cells; type: cell-based; conditions: Homo sapiens, NE = no effect at highest concentration of drug tested, read-out: Ca2+: IC50 for inhibition of calcium entry, LNCaP
Experimental: (§3) Cells were incubated in growth media containing 1 uM of the acetoxy-methyl ester of the Ca2+-sensitive fluorescent dye indo-1 (indo-1/AM; Molecular Probes, Eugene, Oreg.) for 1 h at 37° C. Cells were washed three times in buffer A [10 mM HEPES (pH 7.4), 1 mM MgCl2, 3 mM KCl, 1 mM CaCl2, 140 mM NaCl, 0.1% glucose, and 1% fetal bovine serum] and suspended to a final concentration of 10^6 cells/ml. Before stimulation, cells were warmed to 37° C. Changes in [Ca2+]i were monitored in an SLM 8100C spectrofluorimeter (SLM/Aminco; Urbana, Ill.) using previously published methods (Densmore, J. J., Haverstick, D. M., Szabo, G., and Gray, L. S. 1996. A voltage operable current is involved in activation-induced Ca^2+ entry in human lymphocytes whereas ICRAC has no apparent role. Am. J. Physiol. 271:C1494-C1503; Haverstick, D. M., Densmore, J. J., and Gray, L. S. 1998. Calmodulin regulation of Ca^2+ entry in Jurkat T cells. Cell Calcium 23:361-368).

MDA-361 cells = assay: Inhibition of proliferation of MDA-361 cells; type: cell-based; conditions: MDA361, NE = no effect at highest concentration of drug tested, read-out: prolif: IC50 for inhibition of proliferation, MDA-361
Experimental: as §1, §2

LNCaP cells [5] = assay: Inhibition of proliferation of LNCaP cells; type: cell-based; conditions: Homo sapiens, read-out: prolif: IC50 for inhibition of proliferation, LNCaP
Experimental: as §1, §2

MDA-231 cells [6] = assay: Inhibition of proliferation of MDA-231 cells; type: cell-based; conditions: Homo sapiens, read-out: prolif: IC50 for inhibition of proliferation, MDA-231
PC3 cells = assay: Inhibition of proliferation of PC3 cells; type: cell-based, human; conditions: Homo sapiens, PC-3, PC3, read-out: prolif: IC50 for inhibition of proliferation, PC3
Experimental: as §1, §2

MDA-231 cells [7] = assay: Inhibition of calcium entry into MDA-231 cells; type: cell-based; conditions: Homo sapiens, MDA-MB-231, NE = no effect at highest concentration of drug tested, read-out: Ca2+: IC50 for inhibition of calcium entry, MDA-231
Experimental: as §3

MDA-435 cells [8] = assay: Inhibition of calcium entry into MDA-435 cells; type: cell-based; conditions: MDA435, NE = no effect at highest concentration of drug tested, read-out: Ca2+: IC50 for inhibition of calcium entry, MDA-435
Experimental: as §3

[9] = Jurkat cell line, Tables 1 and 2, unit inferred, read-out: IC50 for inhibition of proliferation
[10] = Jurkat cell line, Tables 1 and 2, unit inferred, read-out: IC50 for inhibition of Ca^2+ entry
[11] = MDA435, NE = no effect at highest concentration of drug tested
[12] = Jurkat, NE = no effect at highest concentration of drug tested, read-out: prolif: IC50 for inhibition of proliferation, Jurkat
[13] = NE = no effect at highest concentration of drug tested
[14] = MDA-MB-231, NE = no effect at highest concentration of drug tested
[15] = Jurkat, NE = no effect at highest concentration of drug tested, read-out: Ca2+: IC50 for inhibition of calcium entry, Jurkat

Row | SMILES | IC50 (Jurkat cells [1]; [9]) | IC50 (Jurkat cells [2]; [10]) | IC50 (Jurkat cells [1]; [12]) | IC50 (LNCaP cells [5]; [13]) | IC50 (Jurkat cells [2]; [15]) | IC50 (PC3 cells; [13]) | IC50 (MDA-435 cells [3]; [11]) | IC50 (MDA-231 cells [6]; [14]) | further results
1 | CC(CN1c2ccccc2Sc2ccccc21)N(C)C (stereo not drawn) [Promethazine] | 4 µM | 60 µM |  |  |  |  |  |  | 
2 | COc1ccc2cc1Oc1ccc(cc1)C[C@H]1c3cc(c(OC)cc3CCN1C)Oc1c(OC)c(OC)cc3c1[C@H](C2)N(C)CC3 [Tetrandrine] | 3 µM | 10 µM |  |  |  |  |  |  | 
3 | CN(C)CCCN1c2ccccc2Sc2ccccc21 [Promazine] | 30 µM | 10 µM |  |  |  |  |  |  | 
4 | COC(=O)C1=C(C)NC(C)=C(C(=O)OCCN(C)Cc2ccccc2)C1c1cccc([N+](=O)[O-])c1 (stereo not drawn) [Nicardipine] | 30 µM | 10 µM |  |  |  |  |  |  | 
5 | CC(NCCC(c1ccccc1)c1ccccc1)c1ccccc1 (stereo not drawn) [Fendiline] | 30 µM | 10 µM |  |  |  |  |  |  | 
6 | CCN(CC)C(C)CN1c2ccccc2Sc2ccccc21 (stereo not drawn) [Ethopropazine] | 30 µM | 10 µM |  |  |  |  |  |  | 
7 | CC(NC(C)(C)C)C(=O)c1cccc(Cl)c1 (stereo not drawn) [Bupropion] | > 100 µM | > 100 µM |  |  |  |  |  |  | 
8 | CN1CCN(C(c2ccccc2)c2ccc(Cl)cc2)CC1 (stereo not drawn) [Chlorcyclizine] | 90 µM | 25 µM |  |  |  |  |  |  | 

The next lines start with results.

Row | IC50 (Jurkat cells [1]; [9]) | IC50 (Jurkat cells [2]; [10]) | IC50 (Jurkat cells [1]; [12]) | IC50 (LNCaP cells [5]; [13]) | IC50 (Jurkat cells [2]; [15]) | IC50 (PC3 cells; [13]) | SMILES | IC50 (MDA-435 cells [3]; [11]) | IC50 (MDA-231 cells [6]; [14]) | further results
9 |  |  | 23 µM | 0.033 mM | 30 µM | 0.055 mM | COc1ccc(CC[N+](C)(C)CCOC(c2ccccc2)c2ccc(Cl)cc2)cc1 (stereo not drawn) [Compound 3.16] | 0.05 mM | 0.021 mM | IC50 (LNCaP cells [4]): 10 µM; IC50 (MDA-361 cells): 8 µM
10 |  |  | ~30 µM | ~0.1 mM |  | > 0.1 mM | COc1ccc(CCCCCCNC(c2ccccc2)c2ccc(Cl)cc2)cc1 (stereo not drawn) [Compound 3.23] | > 0.1 mM | > 0.1 mM | 
11 |  |  | 70 µM | 0.042 mM | 60 µM | > 0.1 mM | COc1ccc(CCCNCCCC(c2ccccc2)c2ccc(Cl)cc2)cc1 (stereo not drawn) [Compound 3.3] | > 0.1 mM | > 0.1 mM | IC50 (MDA-231 cells [7]): 100 µM
12 |  |  | 13 µM | 0.009 mM | 3 µM | 0.009 mM | COc1ccc(CCCCCNCC(c2ccccc2)c2ccc(Cl)cc2)cc1 (stereo not drawn) [Compound 3.22] | 0.04 mM | 0.025 mM | IC50 (MDA-231 cells [7]): 10 µM
13 |  |  | > 100 µM | > 0.1 mM | 30 µM | > 0.1 mM | COc1ccc(NCCCCCCC(c2ccccc2)c2ccc(Cl)cc2)cc1 (stereo not drawn) [Compound 3.17] | > 0.1 mM | > 0.1 mM | IC50 (LNCaP cells [4]): 30 µM; IC50 (MDA-231 cells [7]): 30 µM; IC50 (MDA-435 cells [8]): 30 µM
14 |  |  | ~100 µM | ~0.1 mM | 10 µM | > 0.1 mM | COc1ccc(COCCOC(c2ccccc2)c2ccc(Cl)cc2)cc1 (stereo not drawn) [Compound 3.7] | > 0.1 mM | > 0.1 mM | IC50 (MDA-231 cells [7]): 60 µM; IC50 (MDA-361 cells): > 100 µM
15 |  |  | > 300 µM |  |  |  | COc1ccc(CCNc2ccccc2COC(c2ccccc2)c2ccc(Cl)cc2)cc1 (stereo not drawn) [Compound 3.10] |  |  | IC50 (MDA-435 cells [3]; MDA435, mM): > 1 mM; IC50 (MDA-361 cells): ~70 µM; IC50 (LNCaP cells [5]; mM): > 1 mM; IC50 (MDA-231 cells [6]; MDA-MB-231, mM): > 1 mM; IC50 (PC3 cells; mM): > 1 mM
